In the supplement of paper PMC11208160:

Experiment: recombinant UMI read abundance after kanamycin selection (control-corrected) (log10(CPM+1)); higher = more efficient recombination; extreme values may be limits of the assay; sequences stand for … in AGTGCAGAGAAAATCGGCCAGTTTTCTCTGCCTGCAGTCCGCATGCCGTGGGACCCCTTGGGTTCTAACCTGTTGCCTAGATTTATGCAGCGGACTGCCTTTCTCCCAAAGTGATAAACCGG…AGGTTGGTTTCACT; site = the 11-nt donor
Outline: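 Each donor and donor-binding-loop pair was tracked by a 12-nt UMI on a plasmid carrying a promoterless kanamycin gene. With a second plasmid supplying a fixed target and T7-inducible IS621 bridge recombinase, the pool was plated in Escherichia coli on IPTG (0.07 mM) plus kanamycin or unselected. Sequencing of recombinant UMIs across the donor–target junction gave counts expressed as log10(CPM+1) after replicate averaging and control-derived scaling.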
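Also: IS621 bridge recombinase in Escherichia coli cells against a fixed T5 target plasmid.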

Sequence	recombinant UMI read abundance (log10)
TAACGTCCATGGACCGGTTTTCCCGGTAATCCGTATTTGTA (site TAAGGTCCTTA)	0.0133
TAACGTCCATGGACCGGTTTTCCCGGTAATCCGTATTTGTA (site TAATGTCCTTA)	0.00898
TAAGACACATGGACCGGTTTTCCCGGTAATCCGTATTTGTT (site TAAGACACTAA)	1.94
TAAGAGACATGGACCGGTTTTCCCGGTAATCCGTATTTGCG (site TAAGAGACTCG)	2.41
TAAGAGACATGGACCGGTTTTCCCGGTAATCCGTATTTGCG (site TCAGAGACTCG)	0.896
TAAGAGACATGGACCGGTTTTCCCGGTAATCCGTATTTGCG (site TGAGAGACTCG)	0.483
TAAGAGACATGGACCGGTTTTCCCGGTAATCCGTATTTGCG (site TTAGAGACTCG)	1.14
TAAGATACATGGACCGGTTTTCCCGGTAATCCGTATTTGCT (site TAAGATACTAG)	2.11
TAAGATGCATGGACCGGTTTTCCCGGTAATCCGTATTTGGG (site ATCCTCTCTGG)	0
TAAGGAGCATGGACCGGTTTTCCCGGTAATCCGTATTTGGG (site TAAAGAGCTCC)	0.628
TAAGGAGCATGGACCGGTTTTCCCGGTAATCCGTATTTGGG (site TAACGAGCTCC)	0
TAAGGAGCATGGACCGGTTTTCCCGGTAATCCGTATTTGGG (site TAAGGAGCTCC)	0.164
TAAGGAGCATGGACCGGTTTTCCCGGTAATCCGTATTTGGG (site TAATGAGCTCC)	0.0199
TAAGTCACATGGACCGGTTTTCCCGGTAATCCGTATTTGAC (site TAAGTCACTGT)	2.35
TAAGTTTCATGGACCGGTTTTCCCGGTAATCCGTATTTGGA (site TAAGTTTCTTC)	2.13
TAATAAGCATGGACCGGTTTTCCCGGTAATCCGTATTTGGG (site TAATAAGCTCC)	0.013
TAATAAGCATGGACCGGTTTTCCCGGTAATCCGTATTTGGG (site TAATCAGCTCC)	0.012
TAATAAGCATGGACCGGTTTTCCCGGTAATCCGTATTTGGG (site TAATGAGCTCC)	0.00879
TAATAAGCATGGACCGGTTTTCCCGGTAATCCGTATTTGGG (site TAATTAGCTCC)	0.507

Sequence	recombinant UMI read abundance (log10)
TAATCAGCATGGACCGGTTTTCCCGGTAATCCGTATTTGTC (site TAATCAGCTGA)	1.93
TAATGAGCATGGACCGGTTTTCCCGGTAATCCGTATTTGAG (site TAATGAGCTCA)	0.196
TAATGAGCATGGACCGGTTTTCCCGGTAATCCGTATTTGAG (site TAATGAGCTCC)	0.104
TAATGAGCATGGACCGGTTTTCCCGGTAATCCGTATTTGAG (site TAATGAGCTCG)	0.341
TAATGAGCATGGACCGGTTTTCCCGGTAATCCGTATTTGAG (site TAATGAGCTCT)	1.33
TAATGAGCATGGACCGGTTTTCCCGGTAATCCGTATTTGCG (site TAATGAGCTCA)	0.385
TAATGAGCATGGACCGGTTTTCCCGGTAATCCGTATTTGCG (site TAATGAGCTCC)	0.00423
TAATGAGCATGGACCGGTTTTCCCGGTAATCCGTATTTGCG (site TAATGAGCTCG)	1.58
TAATGAGCATGGACCGGTTTTCCCGGTAATCCGTATTTGCG (site TAATGAGCTCT)	0.626
TAATGAGCATGGACCGGTTTTCCCGGTAATCCGTATTTGGG (site AAATGAGCTCC)	0.117
TAATGAGCATGGACCGGTTTTCCCGGTAATCCGTATTTGGG (site CAATGAGCTCC)	0.0721
TAATGAGCATGGACCGGTTTTCCCGGTAATCCGTATTTGGG (site GAATGAGCTCC)	0.00249
TAATGAGCATGGACCGGTTTTCCCGGTAATCCGTATTTGGG (site TAAAGAGCTCC)	0.00438
TAATGAGCATGGACCGGTTTTCCCGGTAATCCGTATTTGGG (site TAACGAGCTCC)	0.0128
TAATGAGCATGGACCGGTTTTCCCGGTAATCCGTATTTGGG (site TAAGGAGCTCC)	0.0167
TAATGAGCATGGACCGGTTTTCCCGGTAATCCGTATTTGGG (site TAATAAGCTCC)	0.0171
TAATGAGCATGGACCGGTTTTCCCGGTAATCCGTATTTGGG (site TAATCAGCTCC)	0.0102
TAATGAGCATGGACCGGTTTTCCCGGTAATCCGTATTTGGG (site TAATGAACTCC)	0.0101
